For assay [1], the system named is Hormone-sensitive lipase (HSL). Nature of the assay: hormone-sensitive lipase assay (radiolabeled triolein emulsion). The format is biochemical. To be noted: 50 μM. Here is the method: (§1) Hormone-sensitive lipase (HSL) and lipoprotein lipase (LPL) were measured using a radiolabeled triolein droplet emulsion as described in “Vertesy et al., (2002) Journal Antibiotics 55:480-494”. Pancreatic lipase (PL) was determined by incubation of 0.25 mmol tributyrin in 2 ml of 5 mM Tris/HCl (pH 6.5), 6 mM sodium taurodeoxycholate, 150 mM NaCl, 1 mM CaCl2 with porcine PL and colipase in the same buffer using a recording pH stat (stirring at 1000 rpm at 25° C.) with the pH adjusted to 6.5. PC-PLC was assayed by incubation of 0.2 ml of 10 mM dipalmitoyllecithin, 0.1 ml of 10 mM SDC and 0.1 ml of 0.03 M CaCl2 with bacterial PC-PLC (in 50 mM Tris/HCl, pH 7.5, 0.1% BSA) for 10 min at 37° C. The reaction was terminated by addition of 0.1 ml of 50% TCA and subsequently of 2.5 ml of […]. After centrifugation (1500×g, 15 min), 0.2-ml portions of the upper methanol/water phase (˜1.33 ml) were removed, supplemented with 0.5 ml of 60% HClO4, then heated at 170° C. for 1 h and finally analyzed for inorganic phosphate. Mammalian PI-PLC was measured by incubation of 0.1 ml of 10 mM PI, 0.1 ml of 0.8% sodium deoxycholate, 0.1% BSA, 0.2 ml of 100 mM sodium borate (pH 7.5) and rat liver PI-PLC for 20 min at 37° C. The reaction was terminated and further processed as described for the PC-PLC. […] Radioactive phosphatidic acid was detected by phosphorimaging. […]

The target in assay [2] is T1, porcine pancreatic lipase (PL) (Sus scrofa, UniProt P00591).
T1 construct: crude porcine pancreatic lipase (PL); purchased SigmalAldrich (Deisenhofen, Germany); host or cells: porcine pancreas (crude preparation)
T1 sequence (P00591 whole entry): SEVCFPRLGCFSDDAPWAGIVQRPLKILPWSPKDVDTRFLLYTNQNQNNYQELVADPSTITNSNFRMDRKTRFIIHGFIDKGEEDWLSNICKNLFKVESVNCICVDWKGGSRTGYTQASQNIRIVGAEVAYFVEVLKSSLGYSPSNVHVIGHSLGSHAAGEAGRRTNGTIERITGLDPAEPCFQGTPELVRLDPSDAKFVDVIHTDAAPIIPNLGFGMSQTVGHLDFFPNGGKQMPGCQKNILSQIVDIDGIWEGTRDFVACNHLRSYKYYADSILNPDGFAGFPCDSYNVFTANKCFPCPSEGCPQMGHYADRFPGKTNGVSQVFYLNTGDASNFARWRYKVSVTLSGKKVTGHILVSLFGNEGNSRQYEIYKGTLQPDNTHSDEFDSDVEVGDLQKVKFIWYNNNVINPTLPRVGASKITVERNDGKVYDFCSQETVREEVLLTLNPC
T1 sequence (P02703 23-112 partner): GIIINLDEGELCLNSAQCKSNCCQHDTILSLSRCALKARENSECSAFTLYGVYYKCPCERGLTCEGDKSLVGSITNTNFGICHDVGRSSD
Nature of the assay: pancreatic lipase assay (tributyrin, pH stat). To be noted: 50 μM. It is filed as biochemical. How it is done:
as §1

The test system of assay [3] is GPI-PLC, hcDIGs of rat adipocytes. The format is biochemical. As to conditions: isolated hcDIGs; concentration-dependent.
For a further assay, the system named is cabbage PLD. Nature of the assay: PLD assay ([14C]phosphatidylcholine). It is filed as biochemical. To be noted: 50 μM. How it is done: as §1
In assay [4] the test system is GPI-proteins 5′-Nuc, Gce1 and aP in isolated rat adipocytes. Kind of assay: localization of lipolytically cleaved and uncleaved GPI-proteins at hcDIGs, IcDIGs and total plasma membranes (TX-114 partitioning). The format is cell-based.
Setting [5] is: amphiphilic version in hcDIGs of basal adipocytes set at 100, GPI-2350 50 μM, insulin 10 nM, glimepiride 20 μM.

`CCCCCCCCCCCCP1(=O)O[C@@H]2[C@H](O)[C@@H](O)[C@H](O)[C@@H](O)[C@@H]2O1` (stereo partly shown) [GPI-2350, myo-inositol-1,2-cyclo-dodecylphosphonic acid]: in assay [1], the “effect on HSL” value is “not significantly affected”. In addition, the “effect on PL” value in assay [2] was “not significantly affected”. Further, in assay [3], the “reduction of basal and glimepiride-/insulin-stimulated GPI-PLC activity” value was “to lower than basal and similar levels”. Besides, in the assay with cabbage PLD, the “effect on PLD” value is reported as “not significantly affected”. Further, the “effect on insulin/glimepiride-induced increase in hydrophilic GPI-proteins in plasma membranes” value in assay [4] (50 μM) is on record as “completely blocked”. For the same molecule, in assay [4] (setting [5]), the “aP hydroph. IcDIGs” value stood at 2 ± 2 arb. units and the “aP hydroph. hcDIGs” value is on record as 10 ± 1 arb. units.

Source of the values: patent publication US8017350B2, “Glimepiride- and insulin-induced glycosylphosphatidylinositol-specific phospholipase C regulation” (Sanofi-Aventis Deutschland GmbH, priority 2004, dated 2011).
